# System: despinalisierten Meerschweinchen
# Assay: Determination of the positive inotropic effect in despinalised guinea pigs
# Type: in vivo
# Settings: 1 mg/kg i.v. (Vena jugularis), mean of 3 despinalised guinea pigs, left ventricular pressure
# From the text: Bestimmung der positiv inotropen Wirkung an despinalisierten Meerschweinchen
# Die Untersuchungen wurden an despinalisierten Meerschweinchen durchgeführt. Die Tiere wurden mit 50 % 02 + 50 % N2 beatmet. Der arterielle Blutdruck wurde in der rechten Arteria Carotis mit einem Bell and Howell Druckwandler (4-327-I) gemessen. Für die Erfassung der positiv inotropen Wirkung wurde mit einem Kathetertipmanometer (Millar PR-249) der Druck in dem linken Ventrikel (LV) gemessen. Mittels eines Differenzierers wurde LV-dp/dtmax gewonnen. Die zu untersuchenden Substanzen wurden in eine Vena jugularis injiziert. Als Lösungsdmittel diente 0,9 % NaCl+Polydiol 200 (1:1).
# Jede Substanz wurde an 3 Meerschweinchen überprüft. Die Dosen waren 0,1 - 3 mg/kg i.v.. Die nachfolgende Tabelle enthält die Mittelwerte bei 1 mg/kg i.v..
# Die neuen Verbindungen sind gut verträglich, so konnte bei der Untersuchung der Substanzen A bis D bis zu einer Dosis von 3 mg/kg i.v. keinerlei herztoxische Wirkungen bzw. Kreislaufschäden beobachtet werden.
row,SMILES,Zunahme in LV-dp/dtmax
1,"O=c1ccc2[nH]c(-c3cc4ccccc4cc3Cl)nc2[nH]1 [Substanz B, 2-(3-Chlor-naphth-2-yl)-lH-imidazo[4,5-b]pyridin-5-on]",30%
2,"CCCOc1cc2ccccc2cc1-c1nc2cnc(Cl)nc2[nH]1 [Substanz D, 2-Chlor-8-(3-n-propoxy-naphth-2-yl)-purin]",27%
3,"O=c1[nH][nH]cc2nc(-c3ccc4ccccc4c3)nc1-2 [Substanz A, 2-(Naphth-2-yl)-5H-imidazo[4,5-d]pyridazin-4-on]",28%
4,"COc1ncc2[nH]c(-c3ccc4ccccc4c3)nc2n1 [Substanz C, 2-Methoxy-8-(naphth-2-yl)-purin]",33%

# Source: EP0184738A2, “Imidazole derivatives, medicaments containing these compounds, and process for their preparation” (Dr. Karl Thomae GmbH, priority 1984, dated 1986)
